{"source": "ChEMBL document CHEMBL1201862", "about": "“PubChem BioAssay data set” (2004)", "key": {"[1]": {"biological_target": "T1, Estrogen receptor (Homo sapiens, UniProt P03372)", "T1 sequence (P03372 whole entry)": "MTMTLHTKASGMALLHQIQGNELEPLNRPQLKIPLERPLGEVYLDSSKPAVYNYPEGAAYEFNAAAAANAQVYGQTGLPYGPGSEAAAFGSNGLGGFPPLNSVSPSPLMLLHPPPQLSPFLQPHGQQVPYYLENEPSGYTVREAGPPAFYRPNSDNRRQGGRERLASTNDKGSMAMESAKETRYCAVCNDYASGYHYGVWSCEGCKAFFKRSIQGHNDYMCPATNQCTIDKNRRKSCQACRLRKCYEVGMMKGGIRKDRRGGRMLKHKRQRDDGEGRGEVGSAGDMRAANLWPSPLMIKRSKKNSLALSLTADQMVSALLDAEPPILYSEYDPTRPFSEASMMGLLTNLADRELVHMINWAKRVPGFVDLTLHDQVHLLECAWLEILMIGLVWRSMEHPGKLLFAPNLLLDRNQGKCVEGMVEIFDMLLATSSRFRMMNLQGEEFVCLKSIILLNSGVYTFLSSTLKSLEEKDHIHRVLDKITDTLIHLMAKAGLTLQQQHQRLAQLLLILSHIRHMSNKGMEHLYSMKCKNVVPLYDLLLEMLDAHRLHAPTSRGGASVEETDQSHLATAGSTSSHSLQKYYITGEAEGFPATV"}, "[2]": {"biological_target": "Paired box protein Pax-8 (Homo sapiens, UniProt Q06710)", "sequence (Q06710 whole entry)": "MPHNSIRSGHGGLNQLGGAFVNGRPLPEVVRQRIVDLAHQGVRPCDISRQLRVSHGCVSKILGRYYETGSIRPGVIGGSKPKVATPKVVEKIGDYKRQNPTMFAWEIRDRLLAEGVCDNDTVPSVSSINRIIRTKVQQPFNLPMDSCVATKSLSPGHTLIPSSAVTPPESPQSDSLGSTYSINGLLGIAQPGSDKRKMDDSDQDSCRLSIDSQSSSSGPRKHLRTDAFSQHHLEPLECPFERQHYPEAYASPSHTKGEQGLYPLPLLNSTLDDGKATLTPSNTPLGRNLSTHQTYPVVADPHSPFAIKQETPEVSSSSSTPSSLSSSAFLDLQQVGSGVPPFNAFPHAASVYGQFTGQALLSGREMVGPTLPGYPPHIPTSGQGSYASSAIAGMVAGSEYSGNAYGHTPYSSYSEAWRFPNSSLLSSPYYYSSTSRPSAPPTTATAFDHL", "experiment": "inhibitors of PAX8-driven TPO luciferase reporter, dose response, RMG-I cells, cherry-pick (AID 687027);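 note: luciferase reporter driven by Pax8 target thyroperoxidase promoter measured by SteadyGlo luminescence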", "type": "functional, cell-based"}, "[3]": {"experiment": "IGROV1 ovarian cancer cell cytotoxicity, dose response, PAX8 inhibitor project, plate reader, dry powder samples (AID 743043)", "type": "functional, cell-based", "settings": "IGROV-1"}, "[4]": {"experiment": "A cytotoxicity screen of small molecule inhibitors of the PhoP region in Salmonella typhi identified in the primary screen. [Related pubchem assays: 1850, 1864, 1985 ]", "type": "functional"}, "[5]": {"biological_target": "Estrogen receptor beta (Homo sapiens, UniProt Q92731)", "sequence (Q92731 whole entry)": "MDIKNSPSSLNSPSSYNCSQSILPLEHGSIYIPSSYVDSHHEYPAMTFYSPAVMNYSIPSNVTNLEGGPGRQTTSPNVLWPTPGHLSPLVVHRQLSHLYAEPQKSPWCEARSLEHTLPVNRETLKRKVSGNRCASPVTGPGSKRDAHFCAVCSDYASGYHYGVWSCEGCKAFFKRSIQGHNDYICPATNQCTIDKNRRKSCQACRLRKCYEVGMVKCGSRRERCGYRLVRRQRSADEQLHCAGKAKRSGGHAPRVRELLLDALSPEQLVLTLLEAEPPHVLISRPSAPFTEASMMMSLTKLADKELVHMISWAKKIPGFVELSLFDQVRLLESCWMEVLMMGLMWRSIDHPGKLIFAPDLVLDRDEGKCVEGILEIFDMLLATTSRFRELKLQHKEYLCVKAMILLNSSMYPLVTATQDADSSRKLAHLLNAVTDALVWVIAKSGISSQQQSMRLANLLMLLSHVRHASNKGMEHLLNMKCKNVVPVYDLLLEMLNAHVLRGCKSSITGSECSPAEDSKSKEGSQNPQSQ"}, "[6]": {"experiment": "inhibitors of Vif binding to APOBEC3G peptide, primary screen, biochemical, TR-FRET, GST-Vif 1-94, biotin-A3G peptide, dose response retest (AID 1117319);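 note: TR-FRET signal of purified GST-Vif binding a biotinylated A3G peptide; inhibitors lower the FRET signal by blocking Vif and A3G binding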", "type": "functional"}, "[7]": {"biological_target": "T2, Oxysterols receptor LXR-beta (Homo sapiens, UniProt P55055)", "T2 sequence (P55055 whole entry)": "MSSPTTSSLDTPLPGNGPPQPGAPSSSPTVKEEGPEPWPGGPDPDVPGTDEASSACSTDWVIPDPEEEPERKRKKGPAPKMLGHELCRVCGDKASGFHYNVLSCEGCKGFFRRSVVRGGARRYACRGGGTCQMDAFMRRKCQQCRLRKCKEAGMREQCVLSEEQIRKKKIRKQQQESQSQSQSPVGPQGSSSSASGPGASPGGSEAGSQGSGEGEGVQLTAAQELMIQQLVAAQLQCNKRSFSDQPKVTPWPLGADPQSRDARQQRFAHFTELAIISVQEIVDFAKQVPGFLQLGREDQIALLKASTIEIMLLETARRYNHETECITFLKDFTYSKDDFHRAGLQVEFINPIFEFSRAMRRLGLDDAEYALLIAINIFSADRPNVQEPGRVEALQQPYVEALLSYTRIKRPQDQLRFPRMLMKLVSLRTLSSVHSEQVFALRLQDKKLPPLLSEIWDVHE", "experiment": "LXR agonists, Gal4 luciferase reporter, dose response, counter-screen for ssDAF-12 agonist project, cell-based, luminescence, HEK293, S. stercoralis campaign (AID 720737)", "type": "functional", "settings": "read-out: IC50 (the source's name)"}, "[8]": {"experiment": "Luminescence-based cell-based high throughput dose response assay to identify activators of the DAF-12 from the parasite S. stercoralis (ssDAF-12).", "type": "functional"}, "[9]": {"biological_target": "T3, Aminopeptidase N (Plasmodium falciparum FcB1/Columbia, UniProt O96935)", "T3 sequence (O96935 whole entry)": "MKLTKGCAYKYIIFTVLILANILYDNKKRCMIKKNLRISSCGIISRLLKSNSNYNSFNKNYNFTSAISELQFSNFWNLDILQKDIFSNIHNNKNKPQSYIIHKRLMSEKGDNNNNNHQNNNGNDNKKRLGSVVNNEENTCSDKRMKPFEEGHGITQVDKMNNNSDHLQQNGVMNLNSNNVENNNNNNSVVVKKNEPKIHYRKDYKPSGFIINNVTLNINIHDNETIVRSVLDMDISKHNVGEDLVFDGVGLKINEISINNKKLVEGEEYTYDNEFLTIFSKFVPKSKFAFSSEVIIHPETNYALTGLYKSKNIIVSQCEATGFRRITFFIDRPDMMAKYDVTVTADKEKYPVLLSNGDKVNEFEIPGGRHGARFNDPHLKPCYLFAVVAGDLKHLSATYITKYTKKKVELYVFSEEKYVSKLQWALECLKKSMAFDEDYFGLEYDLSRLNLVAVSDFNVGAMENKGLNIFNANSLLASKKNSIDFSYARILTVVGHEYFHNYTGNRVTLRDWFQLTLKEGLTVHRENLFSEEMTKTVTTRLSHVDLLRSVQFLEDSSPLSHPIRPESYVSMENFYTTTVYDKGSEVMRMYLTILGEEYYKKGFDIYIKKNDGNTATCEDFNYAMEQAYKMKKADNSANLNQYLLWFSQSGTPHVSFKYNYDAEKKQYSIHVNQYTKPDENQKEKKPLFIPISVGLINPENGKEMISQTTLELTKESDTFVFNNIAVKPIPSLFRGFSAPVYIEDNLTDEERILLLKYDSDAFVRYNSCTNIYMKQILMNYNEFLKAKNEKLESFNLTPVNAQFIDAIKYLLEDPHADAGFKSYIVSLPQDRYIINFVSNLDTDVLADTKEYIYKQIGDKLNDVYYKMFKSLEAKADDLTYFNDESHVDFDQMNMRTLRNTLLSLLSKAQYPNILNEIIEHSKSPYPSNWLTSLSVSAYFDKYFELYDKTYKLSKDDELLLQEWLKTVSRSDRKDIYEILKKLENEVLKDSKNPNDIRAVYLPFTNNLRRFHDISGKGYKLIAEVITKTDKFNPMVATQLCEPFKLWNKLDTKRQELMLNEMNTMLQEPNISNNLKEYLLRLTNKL", "experiment": "P. falciparum M1AAP inhibitors, biochemical, fluorogenic H-Leu-NHMec substrate, 1536-well (AID 1445)", "design": "species or system Plasmodium falciparum 3D7, 3D7"}, "[10]": {"biological_target": "Large T antigen (Simian virus 40, UniProt P03070)", "sequence (P03070 whole entry)": "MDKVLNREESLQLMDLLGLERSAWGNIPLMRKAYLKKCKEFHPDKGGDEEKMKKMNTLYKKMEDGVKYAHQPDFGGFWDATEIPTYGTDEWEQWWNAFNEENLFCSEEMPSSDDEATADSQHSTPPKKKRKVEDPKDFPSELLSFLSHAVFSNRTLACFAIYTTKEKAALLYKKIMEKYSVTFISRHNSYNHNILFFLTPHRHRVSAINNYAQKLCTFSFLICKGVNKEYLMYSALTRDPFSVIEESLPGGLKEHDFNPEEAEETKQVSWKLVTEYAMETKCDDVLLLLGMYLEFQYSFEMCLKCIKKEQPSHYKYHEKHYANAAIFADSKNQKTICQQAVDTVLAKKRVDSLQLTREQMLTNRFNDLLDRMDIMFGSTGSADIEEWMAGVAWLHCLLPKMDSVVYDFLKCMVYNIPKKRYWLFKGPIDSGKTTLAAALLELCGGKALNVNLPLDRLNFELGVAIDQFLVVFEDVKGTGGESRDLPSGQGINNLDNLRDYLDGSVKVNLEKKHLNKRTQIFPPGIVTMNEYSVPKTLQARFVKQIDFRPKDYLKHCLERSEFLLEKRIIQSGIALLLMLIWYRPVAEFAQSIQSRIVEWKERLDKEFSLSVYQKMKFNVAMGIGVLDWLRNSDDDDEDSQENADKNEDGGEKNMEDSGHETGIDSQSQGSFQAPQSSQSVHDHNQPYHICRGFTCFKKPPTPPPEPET", "type": "functional, Betapolyomavirus macacae"}, "[11]": {"experiment": "HepG2 cell cytotoxicity, dose response, cytotoxicity control, plate reader, cherry-pick, antagonist series (AID 743416)", "type": "functional, cell-based"}, "[12]": {"experiment": "HEK293 cell cytotoxicity, dose response, cytotoxicity control, plate reader, cherry-picked samples (AID 743446)", "type": "functional, cell-based"}, "[13]": {"experiment": "A549 cell cytotoxicity, dose response, cytotoxicity control, plate reader, cherry-pick, antagonist series (AID 743412)", "type": "functional, cell-based"}, "[14]": {"experiment": "LGR2 antagonists, dose response, cell-based, HEK293, CRE-luciferase reporter, cherry pick, set 2 (AID 743343);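 note: transfected cells were stimulated with diluted bursicon conditioned medium after compound addition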", "type": "functional"}, "[15]": {"experiment": "ADAM10 inhibitors, peptide cleavage, dose response, biochemical, QFRET (AID 743254);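 note: ADAM10 enzyme with the DM2 quenched FRET peptide as substrate; EDANS fluorescence gain as the protease cuts the substrate; inhibitor potency against ADAM10 proteolytic activity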"}, "[16]": {"biological_target": "Disintegrin and metalloproteinase domain-containing protein 17 (Homo sapiens, UniProt P78536)", "sequence (P78536 whole entry, the tested form may be a part)": "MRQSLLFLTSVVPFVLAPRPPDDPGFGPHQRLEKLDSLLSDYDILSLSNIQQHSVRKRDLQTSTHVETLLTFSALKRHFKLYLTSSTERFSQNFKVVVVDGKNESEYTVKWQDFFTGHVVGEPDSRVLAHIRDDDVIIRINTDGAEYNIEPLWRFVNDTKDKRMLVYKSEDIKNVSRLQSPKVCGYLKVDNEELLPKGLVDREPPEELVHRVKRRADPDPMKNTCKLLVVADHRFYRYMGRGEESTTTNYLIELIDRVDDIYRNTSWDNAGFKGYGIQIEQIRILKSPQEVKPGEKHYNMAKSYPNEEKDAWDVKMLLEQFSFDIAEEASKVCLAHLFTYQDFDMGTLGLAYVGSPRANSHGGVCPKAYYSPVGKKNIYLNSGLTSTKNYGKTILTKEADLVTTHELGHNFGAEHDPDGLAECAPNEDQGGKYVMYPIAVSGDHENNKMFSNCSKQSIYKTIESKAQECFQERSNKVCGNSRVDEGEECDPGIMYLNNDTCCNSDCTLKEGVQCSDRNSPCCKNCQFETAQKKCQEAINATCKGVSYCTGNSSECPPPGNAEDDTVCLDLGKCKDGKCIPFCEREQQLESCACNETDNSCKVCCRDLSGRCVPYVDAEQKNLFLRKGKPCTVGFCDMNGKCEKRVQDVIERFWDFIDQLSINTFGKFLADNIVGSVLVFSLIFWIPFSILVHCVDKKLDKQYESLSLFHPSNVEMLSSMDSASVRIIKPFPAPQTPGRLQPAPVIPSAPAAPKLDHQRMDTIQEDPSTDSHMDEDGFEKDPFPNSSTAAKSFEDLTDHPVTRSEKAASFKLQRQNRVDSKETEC", "experiment": "ADAM17 protease inhibitors, dose response, counter-screen for ADAM10 exosite inhibitor project, biochemical, quenched FRET substrate (AID 743253)"}}, "note": "The source made the active and inactive calls."}
{"smiles": "COCCOC(=O)c1[nH]c2c(c1C)C(=O)CC(c1ccco1)C2", "note": "(stereo not drawn)", "values": [{"measurement": "IC50", "setting": "[1]", "result": "19.5 µM (active)"}]}
{"smiles": "C[C@@H]1CCCCO[C@@H](CN(C)Cc2ccc(C(F)(F)F)cc2)[C@H](C)CN([C@H](C)CO)C(=O)c2cc(NC(=O)c3ccccc3)ccc2O1", "values": [{"measurement": "AC50", "setting": "[2]", "result": "9.55 µM (active)"}, {"measurement": "AC50", "setting": "[3]", "result": "40.9 µM (active)"}]}
{"smiles": "CC1CCN(C(=O)COc2ccc(Nc3ccccc3)cc2)CC1", "values": [{"measurement": "EC50", "setting": "[4]", "result": "> 50 µM (active)"}]}
{"smiles": "CCN(CC)CCNC(=O)c1cc(Cl)c(N)cc1OC", "values": [{"measurement": "IC50", "setting": "[5]", "result": "> 50 µM (not active)"}]}
{"smiles": "CCS(=O)(=O)c1ccc2oc(Nc3cccc(OC)c3)nc2c1", "values": [{"measurement": "IC50", "setting": "[6]", "result": "> 100 µM (active)"}]}
{"smiles": "COc1ccc(C2CC(c3cccs3)=NN2C(=O)CN2CCCCC2)cc1", "note": "(stereo not drawn)", "values": [{"measurement": "EC50", "setting": "[7]", "result": "> 67.5 µM (inactive)"}, {"measurement": "IC50", "setting": "[8]", "result": "> 67.5 µM (inactive)"}]}
{"smiles": "CN(C)C=O.Cc1ccc(-c2cc(-c3nnc(S)o3)c3ccccc3n2)cc1", "values": [{"measurement": "IC50", "setting": "[9]", "result": "35.5 µM (active)"}]}
{"smiles": "COc1ccc(Cl)cc1N(CC(=O)Nc1ccc2c(c1)OCO2)S(C)(=O)=O", "values": [{"measurement": "IC50", "setting": "[6]", "result": "> 100 µM (active)"}]}
{"smiles": "CCCNC(=O)C1CCN(c2ccc(S(=O)(=O)N3CCOCC3)cc2Cl)CC1", "values": [{"measurement": "EC50", "setting": "[4]", "result": "> 50 µM (active)"}]}
{"smiles": "CCN(CC)c1ccc(NC(=O)c2ccco2)cc1", "values": [{"measurement": "IC50", "setting": "[6]", "result": "> 100 µM (active)"}, {"measurement": "IC50", "setting": "[10]", "result": "5.01 µM (active)"}]}
{"smiles": "COc1ccc2cc(C#N)c(Nc3cccc(F)c3)nc2c1", "values": [{"measurement": "AC50", "setting": "[11]", "result": "> 52 µM (inactive)"}, {"measurement": "AC50", "setting": "[12]", "result": "> 52 µM (inactive)"}, {"measurement": "AC50", "setting": "[13]", "result": "> 52 µM (inactive)"}]}
{"smiles": "O=C(CSc1nc2ccccc2[nH]1)Nc1nc(-c2cccc(Br)c2)cs1", "values": [{"measurement": "AC50", "setting": "[14]", "result": "35.4 µM (active)"}, {"measurement": "AC50", "setting": "[11]", "result": "38.4 µM (active)"}, {"measurement": "IC50", "setting": "[15]", "result": "> 69.5 µM (inactive)"}, {"measurement": "AC50", "setting": "[13]", "result": "24.2 µM (active)"}, {"measurement": "IC50", "setting": "[16]", "result": "> 69.5 µM (inactive)"}]}
{"smiles": "COCCCNc1nc2c(-c3ccc(C)cc3)nnn2c2ccccc12", "values": [{"measurement": "EC50", "setting": "[7]", "result": "> 67.5 µM (inactive)"}, {"measurement": "IC50", "setting": "[8]", "result": "> 67.5 µM (inactive)"}]}
